Structures can show the parent of a compound that is named as a salt. Where two headings read alike, the source gives them in different places.
Tests used:
Type in all cases: cell-based
[1] = test system: Aβ40 generation from APP in CHO cells stably expressing hAPP-REPNL751; assay: Aβ-lowering electrochemiluminescent (MSD ECL) assay of conditioned media, Aβ40
Description: (§1) The activity of compounds in lowering the generation of Aβ40 and Aβ42, the most abundant forms of beta amyloid, from APP (amyloid precursor protein) was measured in an electrochemiluminescent (ECL) assay of conditioned media from chinese hamster ovary (CHO) cells stably expressing the human amyloid precursor protein (APP) reporter construct, hAPP-REPNL751 [Sughir, R. et al.; J. Biolog. Chem. (1992) 267: 25602-25608]. Aβ peptides were secreted at high levels into cell culture media by cells carrying the human APP transgene; compounds were tested for their capacity to modulate this production. The Aβ peptide in the conditioned medium was quantitated by a sandwich immunoassay with the Meso Scale Discovery® (MSD®) ECL detection system. Cell metabolism was measured using MTS salt kit (containing a tetrazolium compound 3-(4,5-dimethylthiazol-2-yl)-5-(3-carboxymethoxyphenyl)-2-(4-sulfophenyl)-2H-tetrazolium, inner salt; MTS(a) which measures the mitochondrial activity of cells by the bioreduction of Owen's reagent). This assay consists of the following protocol: • 1. Aβ-Lowering Assay. • a. hAPP-REPNL751 CHO cells were seeded into 96 well plates and incubated until about 60-70% confluence. • b. Medium was removed, cells were washed, and fresh serum-free medium (Ultraculture) was put on cells. • c. Compounds were diluted and then added to the cell medium. • d. Cells were incubated, with compounds, for indicated times. • e. Streptavidin coated Meso Scale Discover (MSD) plates (MSD standard Multi-Array™ 96 plate, cat. #P11SA-1) were washed 3× with TTBS (Tris-buffered saline, the Tween® 20 reagent). • f. 20 μL conditioned medium were removed from the cells, and added to the TTBS prewashed MSD® plates. • g. Standard curve dilutions of synthetic Aβ40 and Aβ42 were prepared and added to the MSD® plates. • h. A reagent mix was prepared in 1% MSD® Blocker A (appropriate concentration of biotinylated 6E10 antibody, detection antibodies to Aβ40, Aβ42, and MSD ruthinylated tag antibody). • i. 20 μL reagent mix was distributed to sample plate. • j. Plates were incubated with shaking overnight at 4° C. • k. Plates were washed 3× with TTBS. • l. 150 μL read buffer was added per well (MSD Read Buffer T, cat#R92TC-2, made 1× with distilled water). • m. Plates were read in MSD plate reader within 2 hours. • 2. MTS Assay: • a. Cells were seeded into 96 well plates and incubated until about 60-70% confluence. • b. Medium was removed, cells were washed, and fresh serum-free medium (Ultraculture) was put on cells. • c. Compounds were diluted and then added to the cell medium. • d. Cells were incubated, with compounds, for indicated times. • e. Using a robot, conditioned medium was removed from the cells, and transferred to a TTBS prewashed MSD plate. • f. Cells were washed 2× in phosphate buffered saline (PBS) and an MTS solution was plated onto the cells. After 1 hour, they were read on a plate reader at 560 nm to determine metabolic activity. • 3. Analysis of Results. • Assays were accepted or rejected based upon specific performance criteria, including regression coefficient of standard curve, adequate signal to noise ratio, sample signals lying within the range of the standard curve, etc. The specific parameters were established for each tissue type prior to performing an assay, and were included in the full analytical procedure. • Plate data from both assays (MTS and MSD ELISA) were transferred into a Microsoft Excel® spreadsheet to determine the toxicity, and inhibition caused by the compounds. Standard curves of Aβ were generated using LSW toolbar Hill slope model 42, with 1/y weighting (general sigmoidal curve with Hill slope, a to d; y=(a−d)/(1+(x/c)̂b)+d). […]

[2] = test system: Aβ42 generation from APP in CHO cells stably expressing hAPP-REPNL751; assay: Aβ-lowering electrochemiluminescent (MSD ECL) assay of conditioned media, Aβ42
Description: as §1

[3] = test system: S3 (γ-secretase like) processing of Notch (Mouse Notch1 with deleted extracellular domain); assay: Whole cell functional Notch assay (HES1-SEAP reporter, P8H6 CHO-K1 cells); details: Notch assay reference compounds, read-out: EC50 (Notch induced SEAP levels)
Source text: The activity of compounds in cleaving Notch can be measured in a whole cell functional Notch assay. This is an assay to determine the effects of compounds on the S3 (γ-secretase like) processing of Notch. […] SEAP transactivation is then detected by luminescent assay. The assay consists of the following protocol: • 1. Materials and Methods: • (a) Materials: The P8H6 inducible stable cell line was derived from T-REx™ CHO-K1, stably expressing Tet repressor, Notch (pZX1) and HES1-SEAP (pZX2) reporter constructs. A Wallace 1450® Victor Luminescence Counter is used to measure luminescent signal. […] For vehicle samples, the same volume of 0.2% DMSO/25 mM HEPES buffer was added. • Cells were incubated at 37° C., 5% CO2 for 48 hours. • SEAP levels in the conditioned media were assessed using the Clontech GreatEscAPe™ SEAP Chemiluminescence detection kit according to the manufacturer's instruction. […] After cooling, assay buffer was added, and the sample was incubated with the CSPD® substrate. • Luminescence was measured in a Wallace 1450 Victor luminescence counter. • 2. […] EC50 was calculated by […] using sigmoidal inhibition from B0 to nsb model (model 59). […] Inhibition of Notch processing was measured using the stable transfection reporter assay. […]

[4] = electrochemiluminescent assay, hAPP-REPNL751 CHO cells, read-out: C40: EC50 for inhibition of Aβ40
[5] = electrochemiluminescent assay, hAPP-REPNL751 CHO cells, read-out: C42: EC50 for inhibition of Aβ42
[6] = CHO, reference standards of the beta amyloid assay, read-out: EC50αβ42

SMILES | EC50 [1, 4] [µM] | EC50 [2, 5] [µM] | other results
O=S(=O)(O)OC[C@@H](NS(=O)(=O)c1ccc(Cl)s1)[C@@H](c1cc(F)cc(F)c1)C(F)(F)F [Example 6, (2S,3R)-2-{[(5-chloro-2-thienyl)sulfonyl]amino}-3-(3,5-difluorophenyl)-4,4,4-trifluorobutyl Hydrogen Sulfate, Sodium Salt] | 1.74 | 1.29 | –
CCC(CC)[C@@H](COS(=O)(=O)O)NS(=O)(=O)c1ccc(Cl)s1 [Example 3, (2S)-2-{[(5-chloro-2-thienyl)sulfonyl]amino}-3-ethylpentyl Hydrogen Sulfate, Sodium Salt] | 0.243 | 0.234 | –
CC(C)[C@H](O)C(=O)N[C@@H](C)C(=O)N[C@@H]1C(=O)N(C)CCc2ccccc21 [(2S)-2-hydroxy-3-methyl-N-((1S)-1-methyl-2-{[(1S)-3-methyl-2-oxo-2,3,4,5-tetrahydro-1H-3-benzazepin-1-yl]amino}-2-oxoethyl)butanamide, reference compound] | – | – | EC50 [2, 6]: 0.079 µM; EC50 [3]: 0.068 µM
CC[C@@H](C)[C@@H](COS(=O)(=O)O)NS(=O)(=O)c1ccc(Cl)s1 [Example 2, (2S,3R)-2-{[(5-chloro-2-thienyl)sulfonyl]amino}-3-methylpentyl Hydrogen Sulfate, Sodium Salt] | 15 | 15 | –
O=S(=O)(O)OC[C@@H](NS(=O)(=O)c1ccc(Cl)s1)C(C(F)(F)F)C(F)(F)F [Example 1, (2S)-2-{[(5-chloro-2-thienyl)sulfonyl]amino}-4,4,4-trifluoro-3-(trifluoromethyl)butyl Hydrogen Sulfate, Sodium Salt] | 0.447 | 0.445 | –
CC[C@H](C)[C@@H](COS(=O)(=O)O)NS(=O)(=O)c1ccc(Cl)cc1 [Example 4, (2S,3S)-2-{[(4-chlorophenyl)sulfonyl]amino}-3-methylpentyl Hydrogen Sulfate, Sodium Salt] | 15 | 15 | –
O=S(=O)(O)OC[C@@H](NS(=O)(=O)c1ccc(Cl)cc1)C(C(F)(F)F)C(F)(F)F [Example 5] | – | – | EC50 ([1]; CHO, read-out: C40: EC50 for inhibition of Aβ40): 4.03 µM; EC50 ([2]; CHO, read-out: C42: EC50 for inhibition of Aβ42): 4.15 µM
CC[C@H](CC(F)(F)F)[C@@H](CO)NS(=O)(=O)c1ccc(Cl)s1 [5-chloro-N-[(1S,2R)-2-ethyl-4,4,4-trifluoro-1-(hydroxymethyl)butyl]thiophene-2-sulfonamide, reference compound] | – | – | EC50 ([1]; CHO, reference standards of the beta amyloid assay, read-out: EC50αβ40): 0.006 µM; EC50 [2, 6]: 0.005 µM

— US20090181932A1, “COMPOSITIONS CONTAINING O-SULFATE AND O-PHOSPHATE CONTAINING ARYL SULFONAMIDE DERIVATIVES USEFUL AS beta-AMYLOID INHIBITORS” (Wyeth, priority 2008, published 2009)
